Experimental data: PubChem BioAssay (NCI)
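1) Cells in 96-well plates. 2) Compound, 48 h, 5 concentrations. 3) Linear interpolation between surrounding doses. 4) Unreached endpoint = highest concentration. TGI denotes the concentration required for complete inhibition of growth.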

Key:
Test in all cases: inhibition of tumour cell growth, NCI panel, 48 h
MDA-MB-231 breast = system: MDA-MB-231 breast
PC-3 prostate = system: PC-3 prostate
UACC-62 melanoma = system: UACC-62 melanoma
HCT-116 colon = system: HCT-116 colon
SW-620 colon = system: SW-620 colon
UO-31 renal = system: UO-31 renal
NCI-H460 lung = system: NCI-H460 lung
K-562 leukemia = system: K-562 leukemia
U251 CNS = system: U251 CNS
NCI-H23 lung = system: NCI-H23 lung
SF-295 CNS = system: SF-295 CNS
SNB-75 CNS = system: SNB-75 CNS
BT-549 breast = system: BT-549 breast
SNB-19 CNS = system: SNB-19 CNS
SF-539 CNS = system: SF-539 CNS
HCC-2998 colon = system: HCC-2998 colon
MALME-3M melanoma = system: MALME-3M melanoma
KM12 colon = system: KM12 colon
DU-145 prostate = system: DU-145 prostate
OVCAR-5 ovarian = system: OVCAR-5 ovarian
MCF7 breast = system: MCF7 breast
MDA-MB-435 = system: MDA-MB-435
NCI-H226 lung = system: NCI-H226 lung
LOX IMVI melanoma = system: LOX IMVI melanoma
HS 578T breast = system: HS 578T breast
OVCAR-8 ovarian = system: OVCAR-8 ovarian
MDA-N = system: MDA-N
UACC-257 melanoma = system: UACC-257 melanoma
A549 NSCLC = system: A549 NSCLC
HCT-15 colon = system: HCT-15 colon
NCI/ADR-RES ovarian = system: NCI/ADR-RES ovarian
SK-OV-3 ovarian = system: SK-OV-3 ovarian
T-47D breast = system: T-47D breast
SN12C renal = system: SN12C renal
OVCAR-4 ovarian = system: OVCAR-4 ovarian
CCRF-CEM leukemia = system: CCRF-CEM leukemia
A498 renal = system: A498 renal
IGROV1 ovarian = system: IGROV1 ovarian
HT29 colon = system: HT29 colon
HOP-62 NSCLC = system: HOP-62 NSCLC
M14 melanoma = system: M14 melanoma
CAKI-1 renal = system: CAKI-1 renal
SF-268 CNS = system: SF-268 CNS
SK-MEL-5 melanoma = system: SK-MEL-5 melanoma
TK-10 renal = system: TK-10 renal
ACHN renal = system: ACHN renal
HOP-92 NSCLC = system: HOP-92 NSCLC
SK-MEL-28 melanoma = system: SK-MEL-28 melanoma
EKVX NSCLC = system: EKVX NSCLC
OVCAR-3 ovarian = system: OVCAR-3 ovarian
786-0 renal = system: 786-0 renal
COLO 205 colon = system: COLO 205 colon
SK-MEL-2 melanoma = system: SK-MEL-2 melanoma
RPMI-8226 leukemia = system: RPMI-8226 leukemia
MOLT-4 leukemia = system: MOLT-4 leukemia
RXF 393 renal = system: RXF 393 renal

COc1cc(C2c3[nH]c4ccccc4c3[C@@H](Nc3ccc(F)cc3)[C@H]3COC(=O)N23)cc(OC)c1O (stereo partly specified)
TGI (MDA-MB-231 breast): > 10 µM | TGI (PC-3 prostate): > 10 µM | TGI (UACC-62 melanoma): 4.6 µM | TGI (HCT-116 colon): > 10 µM | TGI (SW-620 colon): 5.74 µM | TGI (UO-31 renal): 2.67 µM | TGI (NCI-H460 lung): 4.74 µM | TGI (K-562 leukemia): > 10 µM | TGI (U251 CNS): 7.96 µM | TGI (NCI-H23 lung): 5.18 µM | TGI (SF-295 CNS): 3.69 µM | TGI (SNB-75 CNS): 6.08 µM | TGI (BT-549 breast): 4.28 µM | TGI (SNB-19 CNS): 7.09 µM | TGI (SF-539 CNS): 3.17 µM | TGI (HCC-2998 colon): 3.34 µM | TGI (MALME-3M melanoma): 7.28 µM | TGI (KM12 colon): 6.5 µM | TGI (DU-145 prostate): 4.07 µM | TGI (OVCAR-5 ovarian): 9.08 µM | TGI (MCF7 breast): > 10 µM | TGI (MDA-MB-435): > 10 µM | TGI (NCI-H226 lung): 2.9 µM | TGI (LOX IMVI melanoma): 3.26 µM | TGI (HS 578T breast): 2.11 µM | TGI (OVCAR-8 ovarian): > 10 µM | TGI (MDA-N): > 10 µM | TGI (UACC-257 melanoma): > 10 µM | TGI (A549 NSCLC): 3.31 µM | TGI (HCT-15 colon): 5.35 µM | TGI (NCI/ADR-RES ovarian): > 10 µM | TGI (SK-OV-3 ovarian): 3.95 µM | TGI (T-47D breast): > 10 µM | TGI (SN12C renal): 5.57 µM | TGI (OVCAR-4 ovarian): > 10 µM | TGI (CCRF-CEM leukemia): 3.93 µM | TGI (A498 renal): 7.55 µM | TGI (IGROV1 ovarian): 9.24 µM | TGI (HT29 colon): > 10 µM | TGI (HOP-62 NSCLC): 3.42 µM | TGI (M14 melanoma): 9.55 µM | TGI (CAKI-1 renal): 3.22 µM | TGI (SF-268 CNS): 7.01 µM | TGI (SK-MEL-5 melanoma): 2480 nM | TGI (TK-10 renal): 4.85 µM | TGI (ACHN renal): 1.34 µM | TGI (HOP-92 NSCLC): > 10 µM | TGI (SK-MEL-28 melanoma): > 10 µM | TGI (EKVX NSCLC): > 10 µM | TGI (OVCAR-3 ovarian): 6.09 µM

O=[N+]([O-])/C(C(Cl)=C(Cl)Cl)=C(\Nc1cccc2ccccc12)Sc1ccccc1
TGI (MDA-MB-231 breast): 23.4 µM | TGI (PC-3 prostate): 27.4 µM | TGI (UACC-62 melanoma): 24.1 µM | TGI (786-0 renal): 38 µM | TGI (HCT-116 colon): 56.3 µM | TGI (SW-620 colon): 24.9 µM | TGI (UO-31 renal): 38.7 µM | TGI (NCI-H460 lung): > 100 µM | TGI (K-562 leukemia): > 100 µM | TGI (U251 CNS): 23.4 µM | TGI (NCI-H23 lung): 31.6 µM | TGI (SF-295 CNS): 37.1 µM | TGI (COLO 205 colon): 28.7 µM | TGI (SNB-75 CNS): 43.4 µM | TGI (BT-549 breast): 35.4 µM | TGI (SNB-19 CNS): 40 µM | TGI (SF-539 CNS): 37.4 µM | TGI (HCC-2998 colon): 45.2 µM | TGI (SK-MEL-2 melanoma): 30.6 µM | TGI (MALME-3M melanoma): 31.3 µM | TGI (KM12 colon): 32 µM | TGI (DU-145 prostate): 32 µM | TGI (OVCAR-5 ovarian): 82.1 µM | TGI (MCF7 breast): 28 µM | TGI (MDA-MB-435): 33.4 µM | TGI (NCI-H226 lung): 40.4 µM | TGI (HS 578T breast): 27.2 µM | TGI (OVCAR-8 ovarian): 28.6 µM | TGI (MDA-N): 81 µM | TGI (UACC-257 melanoma): 42.3 µM | TGI (A549 NSCLC): 71.6 µM | TGI (RPMI-8226 leukemia): > 100 µM | TGI (MOLT-4 leukemia): > 100 µM | TGI (HCT-15 colon): 33.1 µM | TGI (NCI/ADR-RES ovarian): 31 µM | TGI (SK-OV-3 ovarian): > 100 µM | TGI (T-47D breast): 44.8 µM | TGI (SN12C renal): 69.3 µM | TGI (OVCAR-4 ovarian): 35.7 µM | TGI (CCRF-CEM leukemia): > 100 µM | TGI (A498 renal): 23.5 µM | TGI (HT29 colon): > 100 µM | TGI (HOP-62 NSCLC): 50.5 µM | TGI (M14 melanoma): > 100 µM | TGI (CAKI-1 renal): 29.1 µM | TGI (SF-268 CNS): 26 µM | TGI (ACHN renal): 28.1 µM | TGI (SK-MEL-28 melanoma): 34 µM | TGI (EKVX NSCLC): 42.2 µM | TGI (OVCAR-3 ovarian): 21.8 µM | TGI (RXF 393 renal): 26.9 µM
